The nature of data set [1]: LD50 in female rats, oral by gavage. Conditions: rat, in vivo, 10% w/v suspension in corn oil. How it is done:
1. The LD50 of the compound of Example 3, both as the free base and the hydrochloride salt was determined in female rats by standard techniques the compound being administered as a 10% w/v suspension in corn oil orally by gavage.

The nature of another data set: LD50 in mice, oral. Conditions: mouse, in vivo, suspension of 0.25% Celacol. As for the experimental part: 2. The LD50 of the compound of Example 3 was determined in mice by standard techniques, the compound being administered orally in a suspension of 0.25% Celacol.
The test system of a further data set is P. berghei. The experiment in a line: percentage inhibition of P. berghei (blood parasitaemia) in mice, seven oral doses. In kind it is in vivo. Particulars: Plasmodium berghei, 96 h, 7 × 10 mg/kg oral, parasitaemia on fourth day. The source says:
Groups of five mice were inoculated intraperitoneally with the normal strain of P. berghei. The mice on test received seven oral doses of drug beginning on the afternoon of the day of infection then twice a day for the following three days. Blood parasitaemias were estimated on the fourth day and compared with those of the untreated controls.
The results are given in Table 1, the results being expressed as percentage inhibition of P. berghei.

The structures appear in SMILES notation.

Take `Cl.Nc1ccccc1SCc1ncon1` [Example 3 - HCl salt, 3-(2-Aminophenylthiomethyl)-1,2,4-oxadiazole hydrochloride]: in data set [1], the LD50 (usually the dose expected to kill half of the subjects tested) came to 63 mg/kg. With `Nc1ccccc1SCc1ncon1` [Example 3, 3-(2-Aminophenylthiomethyl)-1,2,4-oxadiazole], the LD50 is roughly 45 mg/kg in “LD50 in mice, oral” and 79.4 mg/kg in data set [1]. For the compound `Nc1cc(Cl)ccc1SCC1=NOCN1` [Example 52, 3-(2-Amino-4-chlorophenylthiomethyl)-4,5-dihydro-1,2,4-oxadiazole], testing at 10 mg/kg in the data set on P. berghei gave an inhibition in vivo of 95%.

Consider `CN(C)c1ccccc1SCC1=NOCN1` [Example 53, 3-(2-Dimethylaminophenylthiomethyl)-4,5-dihydro-1,2,4-oxadiazole], for which the inhibition in vivo (commonly the share of the control response that was lost under treatment) at 10 mg/kg in the data set with P. berghei worked out at 43%. The compound `CN(C)c1ccccc1SCC(N)=NO` [Example 56, 2-(2-Dimethylaminophenylthio)acetamidoxime] came in with an inhibition in vivo at 10 mg/kg with P. berghei of 100%.
